In patent publication US12187706B2, “NLRP3 modulators” (INNATE TUMOR IMMUNITY, INC., priority 2019, dated 2025):

Assays:
human TLR7 = target: T1, human TLR7 (Homo sapiens, UniProt Q9NYK1); test: In vitro human TLR7 reporter assay (HEK-Blue, NF-kB/AP1-inducible SEAP); assay type: cell-based; conditions: at 50 μM
T1 construct: host or cells: human HEK-Blue cells with NF-kB/AP1-inducible SEAP reporter
T1 sequence (Q9NYK1 27-1049): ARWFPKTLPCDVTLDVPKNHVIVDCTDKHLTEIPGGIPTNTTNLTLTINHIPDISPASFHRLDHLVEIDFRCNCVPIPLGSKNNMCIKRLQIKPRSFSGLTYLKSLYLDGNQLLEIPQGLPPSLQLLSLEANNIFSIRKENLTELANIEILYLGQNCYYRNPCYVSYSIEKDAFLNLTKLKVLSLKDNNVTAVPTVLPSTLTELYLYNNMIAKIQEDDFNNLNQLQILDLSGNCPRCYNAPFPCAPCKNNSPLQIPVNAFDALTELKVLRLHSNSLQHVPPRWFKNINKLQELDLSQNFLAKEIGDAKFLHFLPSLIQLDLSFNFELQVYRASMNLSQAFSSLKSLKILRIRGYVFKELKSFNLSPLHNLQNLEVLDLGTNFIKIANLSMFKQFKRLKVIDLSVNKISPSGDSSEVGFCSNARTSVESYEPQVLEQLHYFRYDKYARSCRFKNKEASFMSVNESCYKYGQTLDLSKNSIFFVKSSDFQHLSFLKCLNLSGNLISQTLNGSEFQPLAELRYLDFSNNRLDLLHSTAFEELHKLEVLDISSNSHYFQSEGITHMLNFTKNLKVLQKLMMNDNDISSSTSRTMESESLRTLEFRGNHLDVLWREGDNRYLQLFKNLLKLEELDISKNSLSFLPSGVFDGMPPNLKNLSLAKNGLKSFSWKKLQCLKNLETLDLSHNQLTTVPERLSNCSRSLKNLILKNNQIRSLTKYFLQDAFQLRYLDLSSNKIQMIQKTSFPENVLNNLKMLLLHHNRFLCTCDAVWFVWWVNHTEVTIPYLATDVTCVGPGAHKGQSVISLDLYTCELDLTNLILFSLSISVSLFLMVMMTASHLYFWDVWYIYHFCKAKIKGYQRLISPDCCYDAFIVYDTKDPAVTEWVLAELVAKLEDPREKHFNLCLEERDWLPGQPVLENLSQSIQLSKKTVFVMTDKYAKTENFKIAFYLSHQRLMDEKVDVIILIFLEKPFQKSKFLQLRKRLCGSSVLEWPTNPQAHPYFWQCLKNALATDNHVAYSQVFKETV
Experimental: In Vitro Human TLR7 and TLR8 Binding Reporter Assays Logarithmically-growing human HEK-Blue cells co-expressing a TLR7 or TLR8 gene and a NF-kB/AP1-inducible SEAP (secreted embryonic alkaline phosphatase; […] Cellular SEAP production is measured using an Envision plate reader instrument thirty minutes after adding freshly-made Quanti-Blue reagent (prepared by following manufacturer instructions; Invivogen, San Diego, CA) to the HEK-Blue TLR Nf-kB-SEAP cell reactions. All EC50 values (half-maximal effective concentration) are determined using proprietary data analysis software.

NLRP3 = target: T2, NLRP3 (Homo sapiens, UniProt Q96P20); test: Measurement of IL-1β production in PMA-differentiated THP-1 cells (NLRP3 hIL1B); assay type: cell-based
T2 construct: host or cells: PMA-differentiated THP-1 cells
How it was run: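 THP-1 cells differentiated with PMA, then replated in RPMI with 2% FBS and exposed to compound for 4 h (alternative: 2 h; hTRF protocol: 2 h at 37 °C, top concentration 10 μM). Supernatant IL-1β was quantified by ELISA or HTRF. Final DMSO 1%, with vehicle control.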

T2 sequence (Q96P20 whole entry): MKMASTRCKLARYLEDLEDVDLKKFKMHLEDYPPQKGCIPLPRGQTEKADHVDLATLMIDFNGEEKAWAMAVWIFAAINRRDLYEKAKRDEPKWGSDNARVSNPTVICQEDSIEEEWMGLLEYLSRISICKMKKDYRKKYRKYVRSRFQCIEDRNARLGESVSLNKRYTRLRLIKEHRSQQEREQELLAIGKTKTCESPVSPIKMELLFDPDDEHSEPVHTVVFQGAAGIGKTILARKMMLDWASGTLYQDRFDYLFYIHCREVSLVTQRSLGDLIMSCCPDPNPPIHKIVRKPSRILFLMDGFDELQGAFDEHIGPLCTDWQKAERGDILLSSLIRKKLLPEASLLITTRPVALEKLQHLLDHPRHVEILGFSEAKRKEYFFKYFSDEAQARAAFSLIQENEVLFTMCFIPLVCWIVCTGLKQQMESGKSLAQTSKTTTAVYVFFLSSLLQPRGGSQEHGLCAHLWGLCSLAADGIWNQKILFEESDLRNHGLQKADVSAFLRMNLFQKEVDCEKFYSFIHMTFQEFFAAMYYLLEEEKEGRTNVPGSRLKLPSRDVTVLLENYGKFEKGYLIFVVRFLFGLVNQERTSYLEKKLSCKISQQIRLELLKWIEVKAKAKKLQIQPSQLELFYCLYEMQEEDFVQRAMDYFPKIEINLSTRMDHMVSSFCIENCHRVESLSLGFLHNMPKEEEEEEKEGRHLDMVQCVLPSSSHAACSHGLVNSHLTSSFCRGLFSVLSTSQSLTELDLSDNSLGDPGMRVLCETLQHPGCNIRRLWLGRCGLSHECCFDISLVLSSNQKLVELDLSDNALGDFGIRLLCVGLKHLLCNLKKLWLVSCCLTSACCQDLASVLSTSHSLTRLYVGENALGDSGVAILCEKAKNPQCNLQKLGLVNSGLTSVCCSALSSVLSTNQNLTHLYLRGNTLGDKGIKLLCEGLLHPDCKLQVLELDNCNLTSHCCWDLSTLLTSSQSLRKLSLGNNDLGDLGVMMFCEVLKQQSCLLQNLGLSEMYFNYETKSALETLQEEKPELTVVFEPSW

SMILES: Nc1nc(OCCO)c2ccc(-c3ccn[nH]3)cc2n1 [Example 4, 2-((2-amino-7-(1H-pyrazol-3-yl)quinazolin-4-yl)oxy)ethan-1-ol]
- TLR7 agonist activity (human TLR7): < 50%
- EC50 (NLRP3): 6.54 µM
